# Assay results from ChEMBL document CHEMBL1201862, “PubChem BioAssay data set” (2004).
#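 Each compound was tested at five concentrations against cells in 96-well plates for 48 hours. GI50: concentration for 50% inhibition of growth.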 The source made the active and inactive calls. Rule as the data show it: active = GI50 up to about 1.1 µM and inactive = higher.
# What was measured:
# Assay in all cases: growth of human tumour cells (NCI), 48 h
# SNB-78 = system: SNB-78
# DMS-273 = system: DMS-273
# LXFL 529 = system: LXFL 529
# M19-MEL = system: M19-MEL
# KM-20L2 = system: KM-20L2
# HOP-18 = system: HOP-18
# DLD-1 = system: DLD-1
# RXF 631 = system: RXF 631
# XF498 = system: XF498
SMILES,GI50 (SNB-78),GI50 (DMS-273),GI50 (LXFL 529),GI50 (M19-MEL),GI50 (KM-20L2),GI50 (HOP-18),GI50 (DLD-1),GI50 (RXF 631),GI50 (XF498)
O=c1ccc2ccccc2c2ccccc12,4.07 µM (inactive),3.33 µM (inactive),2.95 µM (inactive),3.15 µM (inactive),1.94 µM (inactive),3.52 µM (inactive),3.39 µM (inactive),,
Nc1nc(N)c(-c2ccccc2)c(C(=O)Nc2ccc(Cl)c(Cl)c2)n1,> 100 µM (inactive),> 100 µM (inactive),> 100 µM (inactive),> 100 µM (inactive),> 100 µM (inactive),> 100 µM (inactive),> 100 µM (inactive),> 100 µM (inactive),
O=C(CCC(=O)Nc1cccc(Cl)c1)CC(=O)c1ccc(Cl)cc1,> 100 µM (inactive),> 100 µM (inactive),> 100 µM (inactive),,> 100 µM (inactive),,> 10 µM (inactive),> 100 µM (inactive),> 100 µM (inactive)
Cc1cccc(/C=N/C23CC4CC(CC(C4)C2)C3)c1,> 100 µM (inactive),> 100 µM (inactive),,> 100 µM (inactive),> 100 µM (inactive),> 100 µM (inactive),> 100 µM (inactive),,> 100 µM (inactive)
COc1ccc(C2CC(C)=Nc3c(O)nc(S)nc3N2)cc1 (stereo not given),46.7 µM (inactive),16.7 µM (inactive),16.6 µM (inactive),16.9 µM (inactive),16.7 µM (inactive),62.7 µM (inactive),,25.6 µM (inactive),24.8 µM (inactive)
O=C1C(c2ccccc2)=C(c2ccccc2)C(c2ccc(-c3ccc(C4=C(c5ccccc5)C(=O)C(c5ccccc5)=C4c4ccccc4)cc3)cc2)=C1c1ccccc1,,> 100 µM (inactive),> 100 µM (inactive),> 100 µM (inactive),> 100 µM (inactive),> 100 µM (inactive),> 100 µM (inactive),> 100 µM (inactive),> 100 µM (inactive)
COC(=O)N/N=C(/c1nc2ccc([N+](=O)[O-])cc2nc1O)C(O)c1ccc(OC)c(OC)c1 (stereo not given),28.4 µM (inactive),25 µM (inactive),87.1 µM (inactive),> 100 µM (inactive),> 100 µM (inactive),> 100 µM (inactive),> 100 µM (inactive),44.5 µM (inactive),59.2 µM (inactive)
O=C1CC2CC=C[C@H]3c4cc5c(cc4C(=O)N1C23)OCO5 (stereo not given in full),> 50 µM (inactive),> 50 µM (inactive),> 50 µM (inactive),> 50 µM (inactive),> 50 µM (inactive),,> 50 µM (inactive),,
CN1CCOC(c2ccccc2)O1 (stereo not given),> 100 µM (inactive),> 100 µM (inactive),> 100 µM (inactive),> 100 µM (inactive),> 100 µM (inactive),> 100 µM (inactive),> 100 µM (inactive),> 100 µM (inactive),
O=C(Nc1ccccc1-c1n[nH]c(S)nc1=O)C(F)(F)F,> 100 µM (inactive),> 100 µM (inactive),> 100 µM (inactive),> 100 µM (inactive),,,> 100 µM (inactive),,> 100 µM (inactive)
Cc1ccc(NC(=O)SCCC(=O)O)cc1,> 100 µM (inactive),> 100 µM (inactive),> 100 µM (inactive),,> 100 µM (inactive),,> 100 µM (inactive),> 100 µM (inactive),
CC[C@@H](C)[C@H]([C@H](CC(=O)N1CCC[C@@H]1[C@@H](OC)[C@H](C)C(=O)N[C@H](Cc1ccccc1)c1nccs1)OC)N(C)C(=O)[C@H](NC(=O)[C@@H](C(C)C)N(C)C)C(C)C,0.00108 µM (active),0.000159 µM (active),0.000502 µM (active),0.000208 µM (active),6.79e-05 µM (active),0.00407 µM (active),0.000387 µM (active),0.000461 µM (active),
COC[C@@H]1[C@H]2OC(C)(C)O[C@H]2C(=O)N1C(=O)c1ccc(OC)cc1,> 100 µM (inactive),> 100 µM (inactive),> 100 µM (inactive),> 100 µM (inactive),> 100 µM (inactive),> 100 µM (inactive),> 100 µM (inactive),,> 100 µM (inactive)
COc1ccc(C2COc3c(ccc(OC)c3OC)C2=O)cc1OC (stereo not given),> 100 µM (inactive),,> 100 µM (inactive),> 100 µM (inactive),> 100 µM (inactive),> 100 µM (inactive),> 100 µM (inactive),,94.8 µM (inactive)
O=c1c2ccccc2nc(-c2cccc(Cl)c2)n1NC1OC(CO)C(O)C(O)C1O (stereo not given),> 100 µM (inactive),> 100 µM (inactive),> 100 µM (inactive),> 100 µM (inactive),> 100 µM (inactive),50.8 µM (inactive),,> 100 µM (inactive),> 100 µM (inactive)
O=c1[nH]c(=O)n(C2CC(O)C(CO)O2)cc1C#Cc1ccc(C(F)(F)F)cc1 (stereo not given),,> 100 µM (inactive),> 100 µM (inactive),,> 100 µM (inactive),> 100 µM (inactive),> 100 µM (inactive),> 100 µM (inactive),> 100 µM (inactive)
COc1ccccc1NS(=O)(=O)c1cc(C(C)(C)C)ccc1OCCOc1ccc(C(C)(C)C)cc1S(=O)(=O)Nc1ccccc1OC,> 100 µM (inactive),> 100 µM (inactive),,> 100 µM (inactive),,> 100 µM (inactive),> 100 µM (inactive),,
O=C(Nc1ccn(CCOC(=O)c2ccccc2)c(=O)n1)c1ccccc1,> 100 µM (inactive),> 100 µM (inactive),> 100 µM (inactive),> 100 µM (inactive),> 100 µM (inactive),> 100 µM (inactive),,,
O=C1C=C(Nc2ccc(Cl)cc2C(=O)c2ccccc2)c2ccccc2C1=O,> 100 µM (inactive),> 100 µM (inactive),> 100 µM (inactive),,> 100 µM (inactive),> 100 µM (inactive),> 100 µM (inactive),> 100 µM (inactive),> 100 µM (inactive)
CN(C)CCN(C)CC1COC(C)(C)O1 (stereo not given),> 100 µM (inactive),> 100 µM (inactive),> 100 µM (inactive),> 100 µM (inactive),> 100 µM (inactive),> 100 µM (inactive),> 100 µM (inactive),,> 100 µM (inactive)
O=C1c2ccccc2C(=O)c2sc(Nc3ccccc3Cl)nc21,13.9 µM (inactive),13.5 µM (inactive),2.27 µM (inactive),1.62 µM (inactive),20.7 µM (inactive),13.4 µM (inactive),4.68 µM (inactive),18 µM (inactive),16 µM (inactive)
CC1CN1C(=O)NCCCCCCNC(=O)N1CC1C (stereo not given),,25.6 µM (inactive),> 100 µM (inactive),> 100 µM (inactive),> 100 µM (inactive),> 100 µM (inactive),> 100 µM (inactive),,> 100 µM (inactive)
Cc1cccc(NC(=O)C(=O)Cc2nc3ccccc3nc2O)c1C,> 100 µM (inactive),,> 100 µM (inactive),> 100 µM (inactive),> 100 µM (inactive),> 100 µM (inactive),> 100 µM (inactive),,> 100 µM (inactive)
C[C@]12CCC(=O)C=C1CC[C@@H]1C2CC[C@]2(C)Nc3[nH]ncc3CC12 (stereo not given in full),> 100 µM (inactive),> 100 µM (inactive),> 100 µM (inactive),> 100 µM (inactive),> 100 µM (inactive),,> 100 µM (inactive),,> 100 µM (inactive)
CN(C)CCNc1ccc(CO)c2sc3ccc(O)cc3c(=O)c12,14.4 µM (inactive),0.615 µM (active),4.88 µM (inactive),3.08 µM (inactive),6.41 µM (inactive),12.9 µM (inactive),3.52 µM (inactive),,4.92 µM (inactive)
CCCCCCCCCCCCCCCCCCOCC(COP(=O)([O-])OCC[N+](C)(C)C)OC (stereo not given) [EDELFOSINE],19.3 µM (inactive),3.03 µM (inactive),,4.58 µM (inactive),2.9 µM (inactive),13.3 µM (inactive),5.09 µM (inactive),,11.2 µM (inactive)
